For test [1], the target named is T1, α2β3γ2 GABAAR co-expressed with human UT (Homo sapiens, UniProt Q9UKP6).
T1 construct: expressed in transfected cells; host or cells: CHO-K1 stably expressing human UT (pIRES-neo2-UT), transiently nucleofected with GABAAR subunit cDNAs
T1 sequence (Q9UKP6 1-389): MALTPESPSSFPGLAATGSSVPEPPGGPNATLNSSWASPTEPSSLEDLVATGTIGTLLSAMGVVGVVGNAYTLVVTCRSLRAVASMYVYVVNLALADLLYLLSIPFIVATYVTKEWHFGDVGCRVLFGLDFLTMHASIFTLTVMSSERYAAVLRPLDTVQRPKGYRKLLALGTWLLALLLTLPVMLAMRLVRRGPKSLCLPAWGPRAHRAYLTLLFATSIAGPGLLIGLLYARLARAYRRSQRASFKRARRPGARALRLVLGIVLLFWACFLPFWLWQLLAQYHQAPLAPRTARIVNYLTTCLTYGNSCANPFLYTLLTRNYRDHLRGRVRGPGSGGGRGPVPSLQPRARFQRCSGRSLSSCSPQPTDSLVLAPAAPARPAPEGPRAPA
The experiment in a line: Patch-clamp of Iso-evoked current in CHO-UT co-expressing α2β3γ2 GABAAR (CHO-UT-GABAAR). Format: cell-based. As to the method: CHO-K1 cell lines were obtained from American Type Culture Collection (Manassas, VA, USA). The human UT stable CHO (CHO-UT) was generously provided by Dr Christophe Dubessy (Inserm, Rouen University, France) et generated by CHO electroporation with 20 µg pIRES-neo2-UT DNA and 500 µg sterile sonicated salmon sperm DNA using the EasyJect One electroporation system (Equibio, Angleur, Belgium), followed by repetitive rounds of limiting dilution of cells in G-418 (400 µg/ml) for selection. Normal or stable CHO was grown in Ham-F12 medium supplemented with 10% FBS, 1% antibiotic-antimicotic solution and 2 mM glutamine, at 37°C in a humidified incubator with an atmosphere of 5% CO2. The stable CHO-UT medium was supplemented with the antibiotic G-418 (40 µg/ml).
For transfection, cells were trypsinized (0.05%), triturated in HamF-12 containing 10% FBS media, pelleted by centrifugation, resuspended in 100 µl solution V for nucleofection by an Amaxa Nucleofector Device (Köln, Germany; set to program U-016). Experiments were performed on normal CHO or on the stable CHO-UT cells and transiently transfected with combinations of cDNA encoding α2β3γ2, α2β3γ1, α2β1γ2, α2β3γ1, α2β3, β3γ2 (4 µg of cDNA total/transfection) GABAAR subunits. Cells were seeded on 14-mm poly-L-lysine-coated glass bottom insert dishes at 5×10^5 cells in a volume of 0.5 ml/dish. Cells were incubated overnight at 37°C in a humidified incubator (5% CO2) during 16 h before electrophysiological or immunocytochemical experiments.
GABAA receptor cDNA clones; α2, β1, β3, γ1 and γ2L engineered into the expression vector pCDM8 ([…], β1, γ2) or pcDNA/Amp (β3, γ1), were generously provided by Dr Wingrove (Merk Sharp and Dohme, Harlow, UK). To obtain β3 ^HA or γ2 ^HA epitope-tagged subunits, β3 or γ2 cDNA was amplified and the PCR product was subcloned using the SalI and NotI sites of pCMV-HA (Table S2) after digestion by the same restriction enzymes.
The conventional whole-cell configuration of the patch-clamp technique was used to study the GABA-gated currents in astrocytes and granule neurons, UT stably transfected CHO, CHO-UT, and CHO transiently transfected with diverse variants of UT and GABAAR subunits. After 24-h transfection, cell culture coverslips were placed in a small chamber (1.5 ml) on a stage of a right microscope DMLFSA (Leica, Heidelberg, Germany) and superfused continuously with the following bath solution containing (in mM): NaCl, 150; KCl, 2.5; HEPES, 5; CaCl2, 2; MgCl2, 1; glucose, 10 (pH 7.4 adjusted with NaOH). The patch pipettes were fabricated from 1.5 mm (outer diameter) soft glass tubes on a two-step vertical pipette puller (List-Medical, L/M-3P-A, Darmstadt, Germany). […] ATP and GTP were added to the internal solution used to fill electrode just before recording. All recordings were obtained at RT with cells voltage-clamped at −70 mV. The GABAA receptor agonist isoguvacine was prepared in the extracellular solution and was applied to cells by pneumatic pressure ejection. To prevent desenzitization, isoguvacine was more often ejected during 5 s at 2-min intervals. ATP, GTP, or guanosine 5′-O-(2-thiodiphosphate) (GDPβS) were administered through the patch pipette solution. We investigated the effect of competitive inhibition of GDP-GTP exchange by including GDPβS in the pipette solution (in addition to the normal amount of GTP). For GDPβS and the KIC, immediately following patch rupture, GABA current recordings were performed and the experiment was commenced after an equilibration period of 15 min.
All peptide ligands, inhibitors or allosteric modulators of the GABAA receptor function were applied via gravity through a plastic tubing positioned in the vicinity of the cell body in order to maintain a sustained perfusion. In these conditions, drugs could reach the cell of interest after 30 s of perfusion. Isoguvacine was applied focally by pneumatic pressure ejection from a micropipette.

For test [2], the system named is GABAAR co-expressed with UT^HA 351, UT^HA 332 or UT^HA 319. The experiment in a line: Patch-clamp of Iso-evoked current in CHO co-expressing GABAAR and shorter truncated UT (UT^HA 351, UT^HA 332, UT^HA 319). As to conditions: hUII 10^−8 M, 1 min; Iso 10^−4 M, 2 s. The format is cell-based. The source says:
For UT epitope-tagged with HA (UT^HA), or c-myc (UT^c-myc), human UT receptor cDNA inserted into pcDNA3.1 (Ressource Center, MI, USA) was amplified and PCR products were subcloned using the EcoRI and XhoI sites of pCMV-HA or pCMV-c-myc. Mutant UT receptor cDNAs were constructed by oligonucleotide-directed mutagenesis (Expand High Fidelity PCR System; Roche) using the human UT receptor cDNA inserted into pcDNA3.1 as a template. Two sets of forward and reverse oligonucleotides were used (Table S2) to introduce stop codons in frame of Leu370, Phe351, Gly332 and Thr319 (to generate UT371, UT351, UT332 and UT319, respectively). PCR products were subcloned using the EcoRI and XhoI sites of pCMV-HA after digestion by the same restriction enzymes. Mutagenesis was confirmed by automated nucleotide sequencing.
The conventional whole-cell configuration of the patch-clamp technique was used to study the GABA-gated currents in astrocytes and granule neurons, UT stably transfected CHO, CHO-UT, and CHO transiently transfected with diverse variants of UT and GABAAR subunits. After 24-h transfection, cell culture coverslips were placed in a small chamber (1.5 ml) on a stage of a right microscope DMLFSA (Leica, Heidelberg, Germany) and superfused continuously with the following bath solution containing (in mM): NaCl, 150; KCl, 2.5; HEPES, 5; CaCl2, 2; MgCl2, 1; glucose, 10 (pH 7.4 adjusted with NaOH). […]
A general note: In patch-clamp work, channel activity is measured electrically.

Test [3] concerns cultured rat cortical astrocytes. Further details: method as in PMID 16942596, PMID 20192922. As to conditions: ref [41], [42]; cited from earlier work.

With `O=C(O)C1=CCNCC1` [Iso, isoguvacine], the “Apparent desensitization of Iso-evoked current” value in test [1] (Iso 10^−4 M continuous ejection, control (Iso alone) or with hUII 10^−8 M) amounted to 59%. For the same compound, the “Chloride reversal potential (EqCl^−)” value in test [1] (I–V relationship, Iso 10^−4 M without (control) or with hUII 10^−8 M) turned out to be 4.84 mV. In addition, in test [1] (after long Iso exposure (30 s), control (Iso alone) or with hUII), the “Mean time constant of recovery from desensitization (50% receptors)” value amounted to 16.2 s.

On to “ETPDCFWKYCV (disulfide) [hUII, human urotensin II, synthesized by solid phase methodology]”, for which the “hUII effect on GABAAR activity with shorter truncated UT forms” value in test [2] is reported as “totally failed to alter the GABAAR activity”.

For the compound “UII: Urotensin II, species not stated at that place (rUII in astrocytes, hUII in CHO and human cells)”, the “Effect on cell proliferation” value in test [3] is listed as “stimulates cell proliferation”.
